# Source: patent publication US10723741B1, “DNA polymerase IIIC inhibitors and use thereof” (Acurx Pharmaceuticals, LLC, priority 2018, dated 2020)
# Where two headings read alike, the source gives them in different places.
# Key:
# Type in all cases: cell-based
# [1] = system: Staphylococcus aureus NRS384 (MRSA); test: Broth microdilution MIC, S. aureus NRS384 (MRSA); conditions: Staphylococcus aureus, broth microdilution, 37° C., 20 hours
# Summary of the method: (§1)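 Broth microdilution in strain-specific test medium with ~5.0×10^5 cfu/ml inoculum, 1% DMSO and two-fold compound dilutions from 64 to 0.0625 μg/ml. Plates were held 20 hours at 37° C in ambient air. S. pneumoniae colonies were grown beforehand on blood agar in 5% CO2.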
# [2] = system: Staphylococcus aureus ATCC 29213 (MSSA); test: Broth microdilution MIC, S. aureus ATCC 29213 (MSSA); conditions: broth microdilution, 37° C., 20 hours, read-out: MIC S. aureus ATCC 29213 (MSSA)
# Summary of the method: as §1
# [3] = system: Enterococcus faecalis ATCC 29212; test: Broth microdilution MIC, E. faecalis ATCC 29212; conditions: ATCC29212, broth microdilution, 37° C., 20 hours, read-out: MIC E. faecalis ATCC 29212
# Summary of the method: as §1
# [4] = system: Enterococcus faecium ATCC 700221 (VRE); test: Broth microdilution MIC, E. faecium ATCC 700221 (VRE); conditions: Enterococcus faecium, broth microdilution, 37° C., 20 hours
# Summary of the method: as §1
# [5] = system: Streptococcus pneumoniae ATCC 49619; test: Broth microdilution MIC, S. pneumoniae ATCC 49619; conditions: ATCC49619, broth microdilution, 37° C., 20 hours, read-out: MIC S. pneumoniae ATCC 49619
# Summary of the method: as §1
# [6] = system: Bacillus subtilis ATCC 6633; test: Broth microdilution MIC, B. subtilis ATCC 6633; conditions: ATCC6633, broth microdilution, 37° C., 20 hours, read-out: MIC B. subtilis ATCC 6633
# Summary of the method: as §1
# [7] = system: Escherichia coli ATCC 25922; test: Broth microdilution MIC, E. coli ATCC 25922 (MHIIB w & w/o 4 mM EDTA); conditions: broth microdilution, 37° C., 20 hours; for MIC: Escherichia coli, ATCC25922, without EDTA, read-out: MIC E. coli ATCC 25922; for MIC E. coli ATCC 25922 + 4 mM EDTA: with 4 mM EDTA
# Summary of the method: as §1
# [8] = read-out: MIC E. faecium ATCC 700221 (VRE)
SMILES,MIC ([1]; read-out: MIC NRS 384 (MRSA)) [µg/mL],MIC [2] [µg/mL],MIC [3] [µg/mL],"MIC [4, 8] [µg/mL]",MIC [5] [µg/mL],MIC [6] [µg/mL],MIC [7] [µg/mL],MIC E. coli ATCC 25922 + 4 mM EDTA [7] [µg/mL],"MIC ([1]; MHIIB, read-out: MIC against S. aureus NRS 384 (MRSA)) [µg/mL]","MIC ([4]; MHIIB, read-out: MIC against E. faecium ATCC 700221 (VRE)) [µg/mL]"
"CN(CCn1ncc2nc(NCc3ccc(Cl)c(Cl)c3)[nH]c(=O)c21)C(=O)c1cc(Cl)nnc1O [Compound 81, 6-Chloro-N-(2-(5-((3,4-dichlorobenzyl)amino)-7-oxo-6,7-dihydro-1H-pyrazolo[4,3-d]pyrimidin-1-yl)ethyl)-3-hydroxy-N-methylpyridazine-4-carboxamide]",64,64,32,32,8,64,> 64,64,–,–
"CN(CCn1ncc2nc(NCc3ccc(Cl)c(Cl)c3)[nH]c(=O)c21)C(=O)c1cnoc1 [Compound 82, N-(2-(5-((3,4-dichlorobenzyl)amino)-7-oxo-6,7-dihydro-1H-pyrazolo[4,3-d]pyrimidin-1-yl)ethyl)-N-methylisoxazole-4-carboxamide]",16,16,8,4,8,8,> 64,>64,–,–
"O=C(NCCn1ncc2nc(NCc3ccc(Cl)c(Cl)c3)[nH]c(=O)c21)c1cc(Cl)nnc1O [Compound 83, 6-chloro-N-(2-(5-((3,4-dichlorobenzyl)amino)-7-oxo-6,7-dihydro-1H-pyrazolo[4,3-d]pyrimidin-1-yl)ethyl)-3-hydroxypyridazine-4-carboxamide]",> 64,> 64,> 64,> 64,8,64,> 64,>64,–,–
"O=C(NCCn1ncc2nc(NCc3ccc(Cl)c(Cl)c3)[nH]c(=O)c21)c1cc(O)nnc1Cl [Compound 84, 3-chloro-N-(2-(5-((3,4-dichlorobenzyl)amino)-7-oxo-6,7-dihydro-1H-pyrazolo[4,3-d]pyrimidin-1-yl)ethyl)-6-hydroxypyridazine-4-carboxamide]",64,64,64,32,16,64,> 64,>64,–,–
"CN(CCn1ncc2nc(NCc3ccc(Cl)c(Cl)c3)[nH]c(=O)c21)C(=O)c1cc(Cl)nnc1Cl [Compound 85, 3,6-dichloro-N-(2-(5-((3,4-dichlorobenzyl)amino)-7-oxo-6,7-dihydro-1H-pyrazolo[4,3-d]pyrimidin-1-yl)ethyl)-N-methylpyridazine-4-carboxamide]",8,8,8,4,8,4,> 64,16,–,–
"O=C(NCCn1ncc2nc(NCc3ccc(Cl)c(Cl)c3)[nH]c(=O)c21)c1cnoc1 [Compound 86, N-(2-(5-((3,4-dichlorobenzyl)amino)-7-oxo-6,7-dihydro-1H-pyrazolo[4,3-d]pyrimidin-1-yl)ethyl)isoxazole-4-carboxamide]",> 64,> 64,> 64,> 64,> 64,> 64,> 64,>64,–,–
"CN(CCn1ncc2nc(NCc3ccc(Cl)c(Cl)c3)[nH]c(=O)c21)C(=O)c1cc(O)nnc1Cl [Compound 87, 3-chloro-N-(2-(5-((3,4-dichlorobenzyl)amino)-7-oxo-6,7-dihydro-1H-pyrazolo[4,3-d]pyrimidin-1-yl)ethyl)-6-hydroxy-N-methylpyridazine-4-carboxamide]",> 64,64,32,32,8,64,> 64,>64,–,–
"O=c1[nH]c(NCc2ccc(Cl)c(Cl)c2)nc2cnn(CCOCCO)c12 [Compound 88, 5-((3,4-dichlorobenzyl)amino)-1-(2-(2-hydroxyethoxy)ethyl)-1H-pyrazolo[4,3-d]pyrimidin-7(6H)-one]",4,4,4,2,2,2,> 64,>64,–,–
"O=c1[nH]c(NCc2ccc(Cl)c(Cl)c2)nc2cnn(CCCCO)c12 [Compound 89, 5-((3,4-Dichlorobenzyl)amino)-1-(4-hydroxybutyl)-1H-pyrazolo[4,3-d]pyrimidin-7(6H)-one]",2,4,4,1,2,1,> 64,64,–,–
"CC(=O)OCCCCn1ncc2nc(NCc3ccc(Cl)c(Cl)c3)[nH]c(=O)c21 [Compound 90, 4-(5-((3,4-Dichlorobenzyl)amino)-7-oxo-6,7-dihydro-1H-pyrazolo[4,3-d]pyrimidin-1-yl)butyl acetate]",1,2,2,1,2,0.5,> 64,>64,≤ 1,≤ 1
"O=c1[nH]c(NCc2ccc(Cl)c(Cl)c2)nc2cnn(Cc3nccs3)c12 [Compound 91, 5-((3,4-Dichlorobenzyl)amino)-1-(thiazol-2-ylmethyl)-1H-pyrazolo[4,3-d]pyrimidin-7(6H)-one]",2,4,4,2,4,1,> 64,32,–,–
"O=c1[nH]c(NCc2ccc(Cl)c(Cl)c2)nc2cnn(Cc3cocn3)c12 [Compound 92, 5-((3,4-Dichlorobenzyl)amino)-1-(oxazol-4-ylmethyl)-1H-pyrazolo[4,3-d]pyrimidin-7(6H)-one]",4,4,4,2,4,2,> 64,8,–,–
"O=C1CCC(Cn2ncc3nc(NCc4ccc(Cl)c(Cl)c4)[nH]c(=O)c32)N1 (centres unmarked) [Compound 93, 5-((3,4-Dichlorobenzyl)amino)-1-((5-oxopyrrolidin-2-yl)methyl)-1H-pyrazolo[4,3-d]pyrimidin-7(6H)-one]",16,8,8,4,2,4,> 64,64,–,–
"O=C1CCCN1CCn1ncc2nc(NCc3ccc(Cl)c(Cl)c3)[nH]c(=O)c21 [Compound 94, 5-((3,4-Dichlorobenzyl)amino)-1-(2-(2-oxopyrrolidin-1-yl)ethyl)-1H-pyrazolo[4,3-d]pyrimidin-7(6H)-one]",16,16,16,4,4,8,> 64,>64,–,–
"CCCCOCCOCCOCCn1ncc2nc(NCc3ccc(Cl)c(Cl)c3)[nH]c(=O)c21 [Compound 95, 1-(2-(2-(2-Butoxyethoxy)ethoxy)ethyl)-5-((3,4-dichlorobenzyl)amino)-1H-pyrazolo[4,3-d]pyrimidin-7(6H)-one]",4,4,16,4,8,2,> 64,>64,–,–
